Results from ChEMBL document CHEMBL3046051, “A novel approach to the synthesis of 1,2,3-triazoles and their SAR studies” (2010).

Key:
Assay type in all cases: functional
[1] = tested on: Wickerhamiella azyma; test: Antifungal activity against Candida azyma 1452 by paper disk method relative to voriconazole
[2] = tested on: Candida albicans; test: Antifungal activity against Candida albicans 227 by paper disk method relative to voriconazole
[3] = tested on: Aspergillus flavus; test: Antifungal activity against Aspergillus flavus 871 by paper disk method relative to voriconazole
[4] = tested on: Aspergillus niger; test: Antifungal activity against Aspergillus niger 281 by paper disk method relative to voriconazole
[5] = tested on: Aspergillus flavus; test: Antifungal activity against Aspergillus flavus 871 by paper disk method
[6] = tested on: Aspergillus niger; test: Antifungal activity against Aspergillus niger 281 by paper disk method
[7] = tested on: Candida albicans; test: Antifungal activity against Candida albicans 227 by paper disk method
[8] = tested on: Wickerhamiella azyma; test: Antifungal activity against Candida azyma 1452 by paper disk method

Compound | inhibition (INH) [1] [%] | inhibition (INH) [2] [%] | inhibition (INH) [3] [%] | inhibition (INH) [4] [%] | inhibition zone (IZ) [5] [mm] | inhibition zone (IZ) [6] [mm] | inhibition zone (IZ) [7] [mm] | inhibition zone (IZ) [8] [mm]
C=CN1C(C)=C(C(C)=O)NN1c1ccccc1 | -26.67 | -31.25 | -13.33 | -33.33 |  |  |  | 
C=CN1C(C)=C(C(C)=O)NN1c1cccc(Cl)c1 | -86.67 | -93.75 | -73.33 | -100 |  |  |  | 
C=CN1C(C)=C(C(C)=O)NN1c1cccc(O)c1 | 26.67 | 18.75 | 40 | 11.11 |  |  |  | 
C=CN1C(C)=C(C(C)=O)NN1c1ccc(O)cc1 | 33.33 | 25 | 46.67 | 16.67 |  |  |  | 
C=CN1C(C)=C(C(C)=O)NN1c1ccc(C(=O)O)cc1 | 6.67 | 6.25 | 33.33 | -11.11 |  |  |  | 
C=CN1C(C)=C(C(C)=O)NN1c1cccc(C)c1 | -60 | -62.5 | -46.67 | -72.22 |  |  |  | 
C=CN1C(C)=C(C(C)=O)NN1c1cccc([N+](=O)[O-])c1 | 0 | -6.25 | 13.33 | -33.33 |  |  |  | 
C=CN1C(C)=C(C(C)=O)NN1c1ccc([N+](=O)[O-])cc1 | 6.67 | 0 | 20 | -27.78 |  |  |  | 
C=CN1C(C)=C(C(C)=O)NN1c1ccc(C)cc1 | -53.33 | -56.25 | -40 | -66.67 |  |  |  | 
C=CN1C(C)=C(C(C)=O)NN1c1ccc(Cl)cc1 | -80 | -87.5 | -66.67 | -94.44 |  |  |  | 
C=CN1C(C)=C(C(C)=O)NN1c1cccc(OC)c1 | -40 | -43.75 | -26.67 | -50 |  |  |  | 
C=CN1C(C)=C(C(C)=O)NN1c1ccc(OC)cc1 | -33.33 | -37.5 | -20 | -44.44 |  |  |  | 
C[C@@H](c1ncncc1F)[C@](O)(Cn1cncn1)c1ccc(F)cc1F [VORICONAZOLE] |  |  |  |  | 15 | 18 | 16 | 15
